Where two headings read alike, the source gives them in different places.
Assays:
K562 = experiment: CCK-8 cell proliferation and cytotoxicity assay, K562; format: cell-based, Human; settings: read-out: Inhibitory concentration (IC50), K562
Ba/F3 Bcr-Abl/WT = target: T1, Ba/F3 Bcr-Abl/WT (Homo sapiens, UniProt P00519); experiment: CCK-8 assay, Ba/F3 Bcr-Abl/WT; format: cell-based; settings: CCK-8, 72 h, imatinib mesylate sensitive; read-out: Inhibitory concentration (IC50), Ba/F3 Bcr-Abl/WT
T1 construct: fused on or other part: P11274 (Breakpoint cluster region protein)
Excerpt: (§1) The cell lines described in Table 3 were used to test the antiproliferative activity of test compounds.
(§2) Cell Counting Kit-8 (CCK-8) allows very convenient assay by utilizing Dojindo's highly water-soluble tetrazolium salt. CCK-8, being nonradioactive, allows sensitive colorimetric assay for the determination of number of viable cells in cell proliferation and cytotoxicity assays. The amount of the formazan dye generated by dehydrogenases in cells is directly proportional to the number of living cells. Thus, the CCK-8 assay can also be substituted for the H^3-Thymidine incorporation assay.
(§3) Plates were further incubated at 37° C., 5% CO2 incubator for 72 h. 10 μl of the CCK-8 solution was added to each well and plate was incubated for 1-4 h in the incubator. Measured the absorbance at 450 nm using a microplate reader.
(§4) A. The percent inhibition and IC50 were calculated in comparison with control values.

Ba/F3 Bcr-Abl/T315I = Ba/F3 Bcr-Abl/T315I (Homo sapiens, UniProt P00519, T315I, cells depend on it)
Excerpt: as §1, §2, §3, §4

Ba/F3 Bcr-Abl/E255K = target: T2, Ba/F3 Bcr-Abl/E255K (Homo sapiens, UniProt P00519, E255K, cells depend on it); experiment: CCK-8 assay, Ba/F3 Bcr-Abl/E255K; format: cell-based
T2 construct: fused on or other part: P11274 (Breakpoint cluster region protein)

Ba/F3 Bcr-Abl/E255V = target: T3, Ba/F3 Bcr-Abl/E255V (Homo sapiens, UniProt P00519, E255V, cells depend on it); experiment: CCK-8 assay, Ba/F3 Bcr-Abl/E255V; format: cell-based
T3 construct: fused on or other part: P11274 (Breakpoint cluster region protein)

Ba/F3 Bcr-Abl/F317L = target: T4, Ba/F3 Bcr-Abl/F317L (Homo sapiens, UniProt P00519, F317L, cells depend on it); experiment: CCK-8 assay, Ba/F3 Bcr-Abl/F317L; format: cell-based
T4 construct: fused on or other part: P11274 (Breakpoint cluster region protein)

Ba/F3 Bcr-Abl/F359V = target: T5, Ba/F3 Bcr-Abl/F359V (Homo sapiens, UniProt P00519, F359V, cells depend on it); experiment: CCK-8 assay, Ba/F3 Bcr-Abl/F359V; format: cell-based
T5 construct: fused on or other part: P11274 (Breakpoint cluster region protein)

Ba/F3 Bcr-Abl/H396P = target: T6, Ba/F3 Bcr-Abl/H396P (Homo sapiens, UniProt P00519, H396P, cells depend on it); experiment: CCK-8 assay, Ba/F3 Bcr-Abl/H396P; format: cell-based
T6 construct: fused on or other part: P11274 (Breakpoint cluster region protein)

Ba/F3 Bcr-Abl/H396R = target: T7, Ba/F3 Bcr-Abl/H396R (Homo sapiens, UniProt P00519, H396R, cells depend on it); experiment: CCK-8 assay, Ba/F3 Bcr-Abl/H396R; format: cell-based
T7 construct: fused on or other part: P11274 (Breakpoint cluster region protein)

Ba/F3 Bcr-Abl/M244V = target: T8, Ba/F3 Bcr-Abl/M244V (Homo sapiens, UniProt P00519, M244V, cells depend on it); experiment: CCK-8 assay, Ba/F3 Bcr-Abl/M244V; format: cell-based
T8 construct: fused on or other part: P11274 (Breakpoint cluster region protein)

Ba/F3 Bcr-Abl/M351T = target: T9, Ba/F3 Bcr-Abl/M351T (Homo sapiens, UniProt P00519, M351T, cells depend on it); experiment: CCK-8 assay, Ba/F3 Bcr-Abl/M351T; format: cell-based
T9 construct: fused on or other part: P11274 (Breakpoint cluster region protein)

Ba/F3 Bcr-Abl/Q252H = target: T10, Ba/F3 Bcr-Abl/Q252H (Homo sapiens, UniProt P00519, Q252H, cells depend on it); experiment: CCK-8 assay, Ba/F3 Bcr-Abl/Q252H; format: cell-based
T10 construct: fused on or other part: P11274 (Breakpoint cluster region protein)

Ba/F3 Bcr-Abl/Y253F = target: T11, Ba/F3 Bcr-Abl/Y253F (Homo sapiens, UniProt P00519, Y253F, cells depend on it); experiment: CCK-8 assay, Ba/F3 Bcr-Abl/Y253F; format: cell-based
T11 construct: fused on or other part: P11274 (Breakpoint cluster region protein)

Ba/F3 Bcr-Abl/Y253H = target: T12, Ba/F3 Bcr-Abl/Y253H (Homo sapiens, UniProt P00519, Y253H, cells depend on it); experiment: CCK-8 assay, Ba/F3 Bcr-Abl/Y253H; format: cell-based
T12 construct: fused on or other part: P11274 (Breakpoint cluster region protein)

[1] = mouse, ba/f3 bcr-abl/t315i, 72 h
[2] = read-out: Inhibitory concentration (IC50), Ba/F3 Bcr-Abl/T315I, CCK-8, 72 h, imatinib mesylate resistant, Table 4
[3] = CCK-8, 72 h, imatinib mesylate sensitive K562

| Compound | IC50 (K562; Homo sapiens, K562, 72 h) [µM] | GI50 (Ba/F3 Bcr-Abl/WT) [µM] | GI50 (Ba/F3 Bcr-Abl/T315I; [1]) [µM] | GI50 (Ba/F3 Bcr-Abl/T315I; [2]) [µM] | GI50 (Ba/F3 Bcr-Abl/E255K; mouse, 72 h) [µM] | GI50 (Ba/F3 Bcr-Abl/E255V; mouse, 72 h) [µM] | GI50 (Ba/F3 Bcr-Abl/F317L; mouse, 72 h) [µM] | GI50 (Ba/F3 Bcr-Abl/F359V; mouse, 72 h) [µM] | GI50 (Ba/F3 Bcr-Abl/H396P; mouse, 72 h) [µM] | GI50 (Ba/F3 Bcr-Abl/H396R; mouse, 72 h) [µM] | GI50 (Ba/F3 Bcr-Abl/M244V; mouse, 72 h) [µM] | GI50 (Ba/F3 Bcr-Abl/M351T; mouse, 72 h) [µM] | GI50 (Ba/F3 Bcr-Abl/Q252H; mouse, 72 h) [µM] | GI50 (Ba/F3 Bcr-Abl/Y253F; mouse, 72 h) [µM] | GI50 (Ba/F3 Bcr-Abl/Y253H; mouse, 72 h) [µM] | IC50 (K562; [3]) [µM] | further results |
| --- | --- | --- | --- | --- | --- | --- | --- | --- | --- | --- | --- | --- | --- | --- | --- | --- | --- |
| O=C(O)/C=C/c1ccc(O)c(O)c1 [Compound 1, 3-(3,4-Dihydroxy-phenyl)-acrylic acid [caffeic acid]] | > 100 | > 100 | > 100 | > 100 | > 100 | > 100 | > 100 | > 100 | > 100 | > 100 | > 100 | > 100 | > 100 | > 100 | > 100 | – | – |
| CCOC(=O)C=Cc1ccc(O)c(O)c1 [Compound 3, 3-(3,4-Dihydroxy-phenyl)-acrylic acid ethyl ester] | 11.8 ± 8.8 | 3.3 ± 0.9 | 1.1 | 2.3 ± 0.9 | 6.7 | 10.2 | 12.3 | 13.4 | 16.6 | 8.6 | 15.2 | 8.7 | 8.4 | 6.4 | 13.2 | – | – |
| CCCOC(=O)C=Cc1ccc(O)c(O)c1 [Compound 5, 3-(3,4-Dihydroxy-phenyl)-acrylic acid n-propyl ester] | 13.5 ± 2.1 | 2.4 ± 0.8 | 0.6 | 0.7 ± 0.1 | 2.9 | 3.4 | 1.6 | 2.5 | 5.6 | 1.1 | 3 | 2.2 | 1.7 | 1.7 | 3.3 | – | – |
| CC(C)OC(=O)C=Cc1ccc(O)c(O)c1 [Compound 6, 3-(3,4-Dihydroxy-phenyl)-acrylic acid i-propyl ester] | 16.5 ± 2.1 | 2.3 ± 1.1 | 2 | 1.7 ± 1.1 | 5.1 | 9.9 | 11.3 | 14.6 | 10.8 | 7 | 9.8 | 5.1 | 5.9 | 5.2 | 13.3 | – | – |
| CCN1CCN(C(=O)C=Cc2ccc(O)c(O)c2)CC1 [Compound 9, 3-(3,4-Dihydroxy-phenyl)-1-(4-ethyl-piperazin-1-yl)-propenone] | – | 40.6 ± 16.4 | – | 43.1 ± 27.9 | – | – | – | – | – | – | – | – | – | – | – | 59.5 | – |
| O=C(C=Cc1ccc(O)c(O)c1)N1CCN(Cc2ccccc2)CC1 [Compound 10, 1-(4-Benzyl-piperazin-1-yl) 3-(3,4-dihydroxy-phenyl)-propenone] | – | 2.8 ± 0.4 | – | 2.5 ± 1.5 | – | – | – | – | – | – | – | – | – | – | – | 18 | GI50 (Ba/F3 Bcr-Abl/T315I; ba/f3 bcr-abl/t315i): 3.1 µM; GI50 (Ba/F3 Bcr-Abl/E255K): 2.4 µM; GI50 (Ba/F3 Bcr-Abl/E255V): 2.1 µM; GI50 (Ba/F3 Bcr-Abl/F317L): 1.2 µM; GI50 (Ba/F3 Bcr-Abl/F359V): 2.6 µM; GI50 (Ba/F3 Bcr-Abl/H396P): 3.7 µM; GI50 (Ba/F3 Bcr-Abl/H396R): 1 µM; GI50 (Ba/F3 Bcr-Abl/M244V): 1.3 µM; GI50 (Ba/F3 Bcr-Abl/M351T): 2.2 µM; GI50 (Ba/F3 Bcr-Abl/Q252H): 1.5 µM; GI50 (Ba/F3 Bcr-Abl/Y253F): 1.1 µM; GI50 (Ba/F3 Bcr-Abl/Y253H): 2.5 µM |
| CN1CCC(N2CCN(C(=O)/C=C/c3ccc(O)c(O)c3)CC2)CC1 [Compound 12, (E)-3-(3,4-dihydroxy-phenyl)-1-[4-(1-methyl-piperidin-4-yl)piperazin-1-yl]-propenone] | – | > 30 | – | > 30 | – | – | – | – | – | – | – | – | – | – | – | > 30 | – |
| O=C(/C=C/c1ccc(O)c(O)c1)N1CCN(c2ccccc2)CC1 [Compound 13, (E)-3-(3,4-dihydroxy-phenyl)-1-(4-phenylpiperazin-1-yl)-propenone] | – | 27 ± 8.5 | – | 26.6 ± 6.5 | – | – | – | – | – | – | – | – | – | – | – | 33.5 | – |
| CC(C)NC(=O)/C=C/c1ccc(O)c(O)c1 [Compound 18, (E)-3-(3,4-dihydroxy-phenyl)-N-isopropyl-acrylamide] | 32.1 | 19.4 ± 8.8 | – | 9.5 ± 4.1 | – | – | – | – | – | – | – | – | – | – | – | – | – |
| O=C(C=Cc1ccc(O)c(O)c1)N1CCC(Cc2ccccc2)CC1 [Compound 19, 1-(4-Benzyl-piperidin-1-yl)-3-(3,4-dihydroxy-phenyl)-propenone] | – | 4.2 ± 1.3 | – | 2.7 ± 0.5 | – | – | – | – | – | – | – | – | – | – | – | 5.7 | GI50 (Ba/F3 Bcr-Abl/T315I; ba/f3 bcr-abl/t315i): 2.1 µM; GI50 (Ba/F3 Bcr-Abl/E255K): 1.5 µM; GI50 (Ba/F3 Bcr-Abl/E255V): 0.8 µM; GI50 (Ba/F3 Bcr-Abl/F317L): 1.1 µM; GI50 (Ba/F3 Bcr-Abl/F359V): 2.4 µM; GI50 (Ba/F3 Bcr-Abl/H396P): 2.8 µM; GI50 (Ba/F3 Bcr-Abl/H396R): 1.4 µM; GI50 (Ba/F3 Bcr-Abl/M244V): 1 µM; GI50 (Ba/F3 Bcr-Abl/M351T): 2.1 µM; GI50 (Ba/F3 Bcr-Abl/Q252H): 1.1 µM; GI50 (Ba/F3 Bcr-Abl/Y253F): 1 µM; GI50 (Ba/F3 Bcr-Abl/Y253H): 1 µM |

— US20100010002A1, “ANTICANCER USE OF CAFFEIC ACID AND ITS DERIVATIVES” (Piramal Life Sciences Limited, priority 2006, published 2010)
